According to US6461997B1, “Triazole sulfones having herbicidal activity” (Monsanto Technology LLC, priority 1999, dated 2002):

Columns and labels:
SASKR (russian thistle) = assay: Pre-plant incorporated (PPI) herbicidal activity, cool season; type: in vivo, Salsola kali; details: pre-plant incorporated; lowest tested rate with 80% or greater inhibition; about 14 days
Experimental: (§1) In another set of tests, the pre-plant incorporated (PPI) activity of compounds of this invention was evaluated on the same species as for the pre-emergence tests described above. In the PPI tests the following procedure, designed to simulate PPI application, was used.
(§2) A pre-prepared topsoil mixture (described above) was placed in a pot and compacted to a depth of 1.0 to 1.25 cm from the top of the pot. Seeds of each of several monocotyledonous and dicotyledonous annual plant species were placed on top of the soil. A sufficient quantity of soil to cover the seeds and level fill the pot was weighed into an open container. A known amount of the test compound was dissolved or suspended in an organic solvent and applied by spraying to this cover soil. The cover soil was thoroughly mixed to distribute the test compound throughout the cover soil, and was then applied as a cover layer over the seeds. Untreated soil was used as a cover layer for control pots. After treatment the plants were placed in a greenhouse where they received 0.64 cm of overhead irrigation. All subsequent watering consisted of a light overhead mist and/or subirrigation as needed for germination and growth. Tables 9 and 10 below relate to warm season plant species which were placed after pre-emergence treatment in a greenhouse with a 30/21° C. day/night temperature regime. Tables 11 and 12 below relates to cool season plant species placed after pre-emergence treatment in a greenhouse or growth chamber with an 18/13° C. day/night temperature regime. Only the compounds of Examples 1, 6, 8, 11, 13 and 15-20 were included in PPI tests.
(§3) Approximately 14 days after planting and treating, the plants were observed and herbicidal efficacy recorded as percent inhibition by comparison with untreated plants.

STEME (common chickweed) = assay: as above; type: in vivo, Stellaria media; details: pre-plant incorporated; lowest tested rate with 80% or greater inhibition; about 14 days
Experimental: as §1, §2, §3

SETFA (giant foxtail) = assay: Pre-plant incorporated (PPI) herbicidal activity, warm season; type: in vivo, Setaria faberi; details: for PPI activity GR80, SETFA: pre-plant incorporated, lowest tested rate with 80% or greater inhibition, about 14 days
Experimental: as §1, §2, §3

[1] = test system: GALAP (catchweed bedstraw); assay: Pre-plant incorporated (PPI) herbicidal activity, cool season; type: in vivo, Galium aparine; details: pre-plant incorporated; lowest tested rate with 80% or greater inhibition; about 14 days
Experimental: as §1, §2, §3

[2] = test system: LAMPU (purple deadnettle); assay: as above; type: in vivo, Lamium purpureum; details: pre-plant incorporated; lowest tested rate with 80% or greater inhibition; about 14 days
Experimental: as §1, §2, §3

SORVU (shattercane) = assay: Pre-plant incorporated (PPI) herbicidal activity, warm season; type: in vivo, Sorghum vulgare; details: for PPI activity GR80, SORVU: pre-plant incorporated, lowest tested rate with 80% or greater inhibition, about 14 days
Experimental: as §1, §2, §3

[3] = test system: AGRRE (quackgrass (seedling)); assay: Pre-plant incorporated (PPI) herbicidal activity, cool season; type: in vivo, Elymus repens; details: pre-plant incorporated; lowest tested rate with 80% or greater inhibition; about 14 days
Experimental: as §1, §2, §3

SINAR (wild mustard) = assay: as above; type: in vivo, Sinapis arvensis; details: pre-plant incorporated; lowest tested rate with 80% or greater inhibition; about 14 days
Experimental: as §1, §2, §3

[4] = test system: BRAPP (broadleaf signalgrass); assay: Pre-plant incorporated (PPI) herbicidal activity, warm season; type: in vivo, Brachiaria platyphylla; details: for PPI activity GR80, BRAPP: pre-plant incorporated, lowest tested rate with 80% or greater inhibition, about 14 days
Experimental: as §1, §2, §3

SETVI (green foxtail) = assay: Pre-plant incorporated (PPI) herbicidal activity, cool season; type: in vivo, Setaria viridis; details: pre-plant incorporated; lowest tested rate with 80% or greater inhibition; about 14 days
Experimental: as §1, §2, §3

corn (ZEAMX) = assay: Selectivity test, PPI, warm season crop; type: in vivo, Zea mays; details: Zea mays, PPI application, read-out: Percent inhibition ZEAMX
Experimental: as §2, §3
Additional pre-emergence and PPI tests were conducted by the procedures described above, on warm and cool season weed species in the presence of crop species, to assess herbicidal selectivity. Crop species included in warm season tests were corn (Zea mays, ZEAMX), rice (Oryza sativa, ORYSA) and soybean (Glycine max, GLYMX). Crop species included in cool season tests were wheat (Triticum aestivum, TRZAW), barley (Hordeunm vulgare, HORVX) and oilseed rape (Brassica napus, BRSNS).
Tables 15 and 16 relate to pre-emergence and PPI tests respectively on warm season species. Table 17 relates to pre-emergence tests on cool season species.

Structure (SMILES)	PPI activity GR80, SASKR (SASKR (russian thistle))	PPI activity GR80, STEME (STEME (common chickweed))	PPI activity GR80, SETFA (SETFA (giant foxtail))	PPI activity GR80, GALAP [1]	PPI activity GR80, LAMPU [2]	PPI activity GR80, SORVU (SORVU (shattercane))	PPI activity GR80, AGRRE [3]	PPI activity GR80, SINAR (SINAR (wild mustard))	PPI activity GR80, BRAPP [4]	PPI activity GR80, SETVI (SETVI (green foxtail))	also measured
CCN(CC)C(=O)n1cnc(S(=O)(=O)C(F)(F)C(=O)c2ccccc2)n1 [Example 6]	300 g/ha	100 g/ha	100 g/ha	100 g/ha	300 g/ha	300 g/ha	300 g/ha	300 g/ha	300 g/ha	300 g/ha	–
CCN(CC)C(=O)n1cnc(S(=O)(=O)C(F)F)n1 [Example 15, 1-(N,N-diethylcarbamoyl)-3-(difluoromethylsulfonyl)-1,2,4-triazole]	100 g/ha	300 g/ha	30 g/ha	30 g/ha	300 g/ha	300 g/ha	300 g/ha	100 g/ha	100 g/ha	100 g/ha	inhibition at 30 g/ha (SETFA (giant foxtail); Setaria faberi, PPI application, 30 g/ha, read-out: Percent inhibition SETFA): 40%; inhibition at 100 g/ha (SETFA (giant foxtail); Setaria faberi, PPI application, 100 g/ha, read-out: Percent inhibition SETFA): 99%; inhibition at 300 g/ha (SETFA (giant foxtail); Setaria faberi, PPI application, 300 g/ha, read-out: Percent inhibition SETFA): 100%; inhibition at 900 g/ha (SETFA (giant foxtail); Setaria faberi, PPI application, 900 g/ha, read-out: Percent inhibition SETFA): 100%; inhibition at 10 g/ha (corn (ZEAMX); 10 g/ha): 0%; inhibition at 30 g/ha (corn (ZEAMX); 30 g/ha): 0%; inhibition at 100 g/ha (corn (ZEAMX); 100 g/ha): 20%; inhibition at 300 g/ha (corn (ZEAMX); 300 g/ha): 60%; inhibition at 900 g/ha (corn (ZEAMX); 900 g/ha): 85%; inhibition at 10 g/ha (SORVU (shattercane); Sorghum bicolor, PPI application, 10 g/ha, read-out: Percent inhibition SORVU): 10%; inhibition at 30 g/ha (SORVU (shattercane); Sorghum bicolor, PPI application, 30 g/ha, read-out: Percent inhibition SORVU): 60%; inhibition at 100 g/ha (SORVU (shattercane); Sorghum bicolor, PPI application, 100 g/ha, read-out: Percent inhibition SORVU): 100%; inhibition at 300 g/ha (SORVU (shattercane); Sorghum bicolor, PPI application, 300 g/ha, read-out: Percent inhibition SORVU): 100%; inhibition at 900 g/ha (SORVU (shattercane); Sorghum bicolor, PPI application, 900 g/ha, read-out: Percent inhibition SORVU): 100%; inhibition at 10 g/ha ([4]; Urochloa platyphylla, PPI application, 10 g/ha, read-out: Percent inhibition BRAPP): 0%; inhibition at 30 g/ha ([4]; Urochloa platyphylla, PPI application, 30 g/ha, read-out: Percent inhibition BRAPP): 0%; inhibition at 100 g/ha ([4]; Urochloa platyphylla, PPI application, 100 g/ha, read-out: Percent inhibition BRAPP): 95%; inhibition at 300 g/ha ([4]; Urochloa platyphylla, PPI application, 300 g/ha, read-out: Percent inhibition BRAPP): 99%; inhibition at 900 g/ha ([4]; Urochloa platyphylla, PPI application, 900 g/ha, read-out: Percent inhibition BRAPP): 100%
